This is an account of results in patent US4791139A, “Diphenyl ether derivatives and their use as insecticides” (Imperial Chemical Industries PLC, priority 1986, dated 1988).

The mortality is the share of the test organisms that died.

Type in all cases: in vivo
Experiment [1] relates to Heliothis virescens (tobacco budworm - larvae). Description: Residual test, tobacco budworm - larvae (HV), Cotton leaf. Conditions: 72 h, read-out: HV grading of mortality. The protocol:
(§1) The activity of the Product was determined using a variety of insect pests. The Product was used in the form of liquid preparations containing from 100 to 500 parts per million (ppm) by weight of the Product. The preparations were made by dissolving the Product in acetone and diluting the solutions with water containing 0.1% by weight of a wetting agent sold under the trade name "SYNPERONIC" NX until the liquid preparations contained the required concentration of the Product. "SYNPERONIC" is a Registered Trade Mark.
(§2) The test procedure adopted with regard to each pest was basically the same and comprised supporting a number of the pests on a medium which was usually a host plant or a foodstuff on which the pests feed, and treating either or both the pests and the medium with the preparations. The mortality of the pests was then assessed at periods usually varying from one to seven days after the treatment.
(§3) The results of the tests are given in Table III for each of the Products, at the rate in parts per million given in the second column as a grading of mortality designated as A, B or C wherein A indicates 80-100% mortality or knockdown (70-100% for Meloidogyne incognita), B indicates 50-79% mortality knockdown or knockdown (50-69% for Meloidogyne incognita) and C indicates less than 50% mortality or knockdown.
(§4) In Table III the pest organism used is designated by a letter code and the pests species, the support medium or food, and the type and duration of test is given in Table II.
(tobacco budworm - larvae)

Experiment [2] relates to Tetranychus urticae (spider mites - adult). Description: Contact test, spider mites - adult (TUa), French bean leaf. Conditions: 72 h, 3 days, read-out: TUA grading of mortality. The method, then: as §1, with “Mark. The test procedure adopted with regard to each pest was basically the same and comprised supporting a number of the pests on a medium which was usually a host plant or a foodstuff on which the pests feed, and treating either or both the pests and the medium with the preparations. The mortality of the pests was then assessed at periods usually varying from one to seven days after the treatment.” for “Mark.”

Another experiment concerns Myzus persicae (aphids). Put plainly: Contact test, aphids (MP), Chinese Cabbage leaf. Conditions: 72 h, 3 days, read-out: MP grading of mortality. The method, then: The activity of the Product was determined using a variety of insect pests. The Product was used in the form of liquid preparations containing from 100 to 500 parts per million (ppm) by weight of the Product. The preparations were made by dissolving the Product in acetone and diluting the solutions with water containing 0.1% by weight of a wetting agent sold under the trade name "SYNPERONIC" NX until the liquid preparations contained the required concentration of the Product. "SYNPERONIC" is a Registered Trade Mark. The test procedure adopted with regard to each pest was basically the same and comprised supporting a number of the pests on a medium which was usually a host plant or a foodstuff on which the pests feed, and treating either or both the pests and the medium with the preparations. The mortality of the pests was then assessed at periods usually varying from one to seven days after the treatment. […] In Table III the pest organism used is designated by a letter code and the pests species, the support medium or food, and the type and duration of test is given in Table II.

The subject of experiment [3] is Diabrotica balteata (rootworm larvae). Description: Residual test, rootworm larvae (DB), Filter paper/maize seed. The following applies: 72 h, 3 days, read-out: DB grading of mortality. The protocol:
(§5) The activity of the Product was determined using a variety of insect pests. The Product was used in the form of liquid preparations containing from 100 to 500 parts per million (ppm) by weight of the Product. The preparations were made by dissolving the Product in acetone and diluting the solutions with water containing 0.1% by weight of a wetting agent sold under the trade name "SYNPERONIC" NX until the liquid preparations contained the required concentration of the Product. "SYNPERONIC" is a Registered Trade Mark. The test procedure adopted with regard to each pest was basically the same and comprised supporting a number of the pests on a medium which was usually a host plant or a foodstuff on which the pests feed, and treating either or both the pests and the medium with the preparations. The mortality of the pests was then assessed at periods usually varying from one to seven days after the treatment.

For experiment [4], the system named is Musca domestica (houseflies - adults). Put plainly: Contact test, houseflies - adults (MD), Cotton wool/sugar. Conditions: 24 h, 1 day, read-out: MD grading of mortality. The protocol: as §5
In experiment [5] the test system is Blattella germanica (cockroach nymphs). Put plainly: Residual test, cockroach nymphs (BG), Plastic pot. The following applies: 72 h, 3 days, read-out: BG grading of mortality. The protocol:
as §5

Experiment [6] deals with Tetranychus urticae (spider mites - ova). Put plainly: Contact test, spider mites - ova (TUe), French bean leaf. The following applies: 144 h, 6 days, read-out: TUE grading of mortality. The method, then:
as §5

Experiment [7] deals with Meloidogyne incognita (Tomato root knot eelworm - larvae). Put plainly: Residual test, Tomato root knot eelworm - larvae (MI), Semi in-vitro. Conditions: 168 h, application rate is half that recorded, 7 days, read-out: MI grading of mortality; for mortality at 250 µg/mL: rate column 500 ppm.
Experiment [8] deals with Nilaparvata lugens (brown plant hopper - nymphs). Description: Contact test, brown plant hopper - nymphs (NL), Rice plant. The following applies: 72 h, 3 days, read-out: NL grading of mortality. The protocol:
as §5

Experiment [9] has as its system Musca domestica (houseflies - adults). Put plainly: Knockdown test, houseflies - adults (MD/KD), Cotton wool/sugar. The following applies: 4 hours, read-out: MD/KD grading of knockdown. The protocol: as §1, §2
In the case of the species Musca domestica (housefly), an additional assessment to determine the knockdown effect of the compounds was performed.
as §4

Experiment [10] relates to Spodoptera exigua (lesser army worm - larvae). Put plainly: Residual test, lesser army worm - larvae (SP), Cotton leaf. The following applies: 72 h, 3 days, read-out: SP grading of mortality. The protocol: as §1, §2, §3, §4
(lesser army worm - larvae)

For `CCOc1ccc(C(CCCc2cccc(Oc3ccccc3)c2)C(F)(F)Cl)cc1` (racemic) [Compound 69, 1,1-Difluoro-1-chloro-2-(4-ethoxyphenyl)-5-(3-phenoxyphenyl)pentane], the mortality at 500 ppm was 80 to 100% in [1]; less than 50% in experiment [2]; 80 to 100% in the experiment on Myzus persicae (aphids); 80 to 100% in [3]; 80 to 100% in [4]; 80 to 100% in experiment [5]. In addition, the mortality at 500 ppm in experiment [6] is less than 50%; in experiment [8] it was 80 to 100%; in [10], 80 to 100%. Moreover, in [7], the mortality at 250 µg/mL is less than 50%. Further, the pest or weed control at 500 ppm in [9] was less than 50%.
For `FC(F)(F)Oc1ccc(C(=CC=Cc2cccc(Oc3ccccc3)c2)C(F)(F)Cl)cc1` [Compound 70, 1,1-Difluoro-1-chloro-2-(4-trifluoromethoxyphenyl)-5-(3-phenoxyphenyl)penta-2,4-diene], the mortality at 500 ppm (in experiment [1]; in experiment [2]; in the experiment on Myzus persicae (aphids); in experiment [3]; in experiment [4]; in experiment [5]) was less than 50% each time. In addition, the mortality at 500 ppm in experiment [6], in [8] and in [10] was less than 50% throughout. In [7], the mortality at 250 µg/mL was 50 to 69%. In addition, the pest or weed control at 500 ppm in experiment [9] is less than 50%.
On to `FC(F)C(F)(F)Oc1ccc(C(CCCc2cccc(Oc3ccccc3)c2)C(F)(F)F)cc1` (racemic) [Compound 63, 1,1,1-trifluoro-2-[4-(1,1,2,2-tetrafluoroethoxy)phenyl]-5-(3-phenoxyphenyl)pentane], for which the mortality at 500 ppm (in experiment [1]; in experiment [2]; with Myzus persicae (aphids); in experiment [3]; in experiment [4]; in experiment [5]) was 80 to 100% throughout. Also, the mortality at 500 ppm in experiment [6], in [8] and in experiment [10] was 80 to 100% in each case. The mortality at 250 µg/mL in [7] is less than 50%. Further, the pest or weed control at 500 ppm in experiment [9] fell in the range of 80 to 100%.
For the molecule `COc1ccc(C(CCCc2cccc(Oc3ccccc3)c2)C(F)(F)F)cc1` (racemic) [Compound 49, 1,1,1-Trifluoro-2-(4-methoxyphenyl)-5-(3-phenoxyphenyl)pentane], the mortality at 500 ppm is 80 to 100% in experiment [1]; less than 50% in experiment [2]; 80 to 100% in the experiment with Myzus persicae (aphids); less than 50% in experiment [3]; 80 to 100% in experiment [4]; less than 50% in experiment [5]. In addition, the mortality at 500 ppm was less than 50% in experiment [6], 80 to 100% in experiment [8] and 80 to 100% in experiment [10]. Further, the mortality at 250 µg/mL in experiment [7] is less than 50%. Besides, the pest or weed control at 500 ppm in [9] fell in the range of 80 to 100%.
Take `CC1(C)Oc2ccc(C(CCCc3cccc(Oc4ccccc4)c3)C(F)(F)F)cc2O1` (stereo not shown) [Compound 58, 1,1,1-Trifluoro-2-[3,4-(dimethylmethylenedioxy)phenyl]-5-(3-phenoxyphenyl)pentane]: the mortality at 500 ppm in experiment [1] is less than 50%; in [2], less than 50%; in the experiment with Myzus persicae (aphids), 50 to 79%; in experiment [3], 80 to 100%; in experiment [4], 80 to 100%; in experiment [5] it was 80 to 100%. For the same molecule, the mortality at 500 ppm in experiment [6] is 80 to 100%; in experiment [8], 80 to 100%; in experiment [10] it was 50 to 79%. Also, the mortality at 250 µg/mL in [7] is less than 50%. Also, in [9], the pest or weed control at 500 ppm was in the range of 80 to 100%.
As for `CCOc1ccc(C(=CCCc2cccc(Oc3ccccc3)c2)C(F)(F)F)cc1F` [Compound 50, 1,1,1-Trifluoro-2-(3-fluoro-4-ethoxyphenyl)-5-(3-phenoxyphenyl)-pent-2-ene], the mortality at 450 ppm in experiment [1] is 80 to 100%; in [2] (450 ppm), less than 50%; in the experiment on Myzus persicae (aphids) (450 ppm) it was 80 to 100%; in experiment [3] (450 ppm), 80 to 100%; in experiment [4] (450 ppm), 80 to 100%; in experiment [5] (450 ppm), 80 to 100%. In addition, the values for the mortality at 450 ppm in [6] (450 ppm), in experiment [8] (450 ppm) and in experiment [10] (450 ppm) were less than 50%, less than 50% and 80 to 100%, respectively. The mortality at 225 µg/mL in [7] (rate column 450 ppm) was less than 50%. Besides, the pest or weed control at 450 ppm in experiment [9] (450 ppm) lay within 80 to 100%.
With `CCOc1ccc(C(CCCc2cccc(Oc3ccccc3)c2)C(F)(F)F)cc1F` (racemic) [Compound 56, 1,1,1-Trifluoro-2-(3-fluoro-4-ethoxyphenyl)-5-(3-phenoxyphenyl)pentane], the mortality at 500 ppm (in experiment [1]; in experiment [2]; with Myzus persicae (aphids); in [3]; in experiment [4]; in [5]) was 80 to 100% in each case. For the same molecule, the mortality at 500 ppm in experiment [6], in experiment [8] and in experiment [10] was 80 to 100% each time. In addition, the mortality at 250 µg/mL in experiment [7] is less than 50%. In addition, the pest or weed control at 500 ppm in experiment [9] lay in the range of 80 to 100%.
As to `Fc1ccc(C(CCCc2cccc(Oc3ccccc3)c2)C(F)(F)F)c(F)c1OC(F)(F)F` (racemic) [Compound 72, 1,1,1-Trifluoro-2-(2,4-difluoro-3-trifluoromethoxyphenyl)-5-(3-phenoxyphenyl)-pentane], the mortality at 500 ppm in experiment [1] was 80 to 100%; in experiment [2] it was 50 to 79%; in the experiment with Myzus persicae (aphids), 80 to 100%; in [3] it was 80 to 100%; in experiment [4], less than 50%; in experiment [5], 80 to 100%. Further, the results for the mortality at 500 ppm in experiment [6], in experiment [8] and in [10] were less than 50%, 50 to 79% and 80 to 100%, respectively. Besides, in experiment [7], the mortality at 250 µg/mL is less than 50%. Further, the pest or weed control at 500 ppm in experiment [9] was less than 50%.
